According to patent publication US20260049092A1, “ANTIBACTERIAL COMPOUNDS” (Blacksmith Medicines, Inc., priority 2022, published 2026):
≈ marks a conversion by molar mass, not a printed value. Like-named read-outs stand apart in the source and are kept apart here.

Experiments:
Assay in all cases: Bacterial susceptibility testing (MIC, broth microdilution)
Assay type in all cases: cell-based
K. pneumoniae ATCC13883 = conditions: Klebsiella pneumoniae
Procedure: (§1) Minimal inhibitory concentrations (MIC) were determined by the broth microdilution method in accordance with the Clinical and Laboratory Standards Institute (CLSI) guidelines. In brief, organism suspensions were adjusted to a final inoculum between 3×10^5 and 7×10^5 colony-forming units (CFU)/mL. Drug dilutions and inocula were made in sterile, cation adjusted Mueller-Hinton Broth (Beckton Dickinson). In wells, an inoculum volume of 100 μL was mixed to 2 μL of DMSO with 2-fold serial dilutions of drug. All inoculated microdilution trays were incubated in ambient air at 35° C. for 18-24 h. Following incubation, the lowest concentration of the drug that prevented visible growth (OD600 nm<0.05) was recorded as the MIC. Performance of the assay was monitored by the use of laboratory quality -control strains and compounds with defined MIC spectrum, in accordance with CLSI guidelines.

E. coli ATCC25922 = conditions: Escherichia coli
Procedure: as §1

P. aeruginosa ATCC27853 = conditions: Pseudomonas aeruginosa
Procedure: as §1

P. aeruginosa PAO1 = conditions: Pseudomonas aeruginosa
Procedure: as §1

[1] = ATCC13883, broth microdilution, cation adjusted Mueller-Hinton Broth, 35° C., 18-24 h, read-out: K. pneumoniae ATCC13883 MIC
[2] = ATCC25922, broth microdilution, cation adjusted Mueller-Hinton Broth, 35° C., 18-24 h, read-out: E. coli ATCC25922 MIC
[3] = ATCC27853, broth microdilution, cation adjusted Mueller-Hinton Broth, 35° C., 18-24 h, read-out: P. aeruginosa ATCC27853 MIC
[4] = PAO1, broth microdilution, cation adjusted Mueller-Hinton Broth, 35° C., 18-24 h, read-out: P. aeruginosa PAO1 MIC
[5] = ATCC13883, read-out: K. pneumoniae ATCC13883 MIC
[6] = ATCC25922, read-out: E. coli ATCC25922 MIC
[7] = ATCC27853, read-out: P. aeruginosa ATCC27853 MIC
[8] = PAO1, read-out: P. aeruginosa PAO1 MIC

Row | Compound | MIC (K. pneumoniae ATCC13883; [1]) | MIC (E. coli ATCC25922; [2]) | MIC (P. aeruginosa ATCC27853; [3]) | MIC (P. aeruginosa PAO1; [4]) | MIC (K. pneumoniae ATCC13883; [5]) | MIC (E. coli ATCC25922; [6]) | MIC (P. aeruginosa ATCC27853; [7]) | MIC (P. aeruginosa PAO1; [8])
1 | C[C@H](O)c1nccn1[C@@H](C#Cc1ccc(-c2ccc(O[C@@H]3COC[C@H]3OC(F)(F)F)cc2)cc1)CO (racemic) [Compound 124, (S)-2-(2-((S)-1-hydroxyethyl)-1H-imidazol-1-yl)-4-(4′-(((rac-trans)-4-(trifluoromethoxy)-tetrahydrofuran-3-yl)oxy)-[1,1′-biphenyl]-4-yl)but-3-yn-1-ol] | 4 µg/mL (≈ 7.96 µM) | 2 µg/mL (≈ 3.98 µM) | > 32 µg/mL | 8 µg/mL (≈ 15.9 µM) |  |  |  | 
2 | C[C@H](O)c1nccn1[C@@H](C#Cc1ccc(-c2ccc(O[C@H]3C[C@@H](NS(C)(=O)=O)C3)cc2)cc1)CO (racemic) [Compound 132, N-((rac-cis)-3-((4′-((S)-4-hydroxy-3-(2-((S)-1-hydroxyethyl)-1H-imidazol-1-yl)but-1-yn-1-yl)-[1,1′-biphenyl]-4-yl)oxy)cyclobutyl)methane-sulfonamide] | > 32 µg/mL | 2 µg/mL (≈ 4.04 µM) | 4 µg/mL (≈ 8.07 µM) | 4 µg/mL (≈ 8.07 µM) |  |  |  | 
3 | C[C@H](O)c1nccn1[C@@H](C#Cc1ccc(-c2ccc(O[C@H]3C[C@H](CNCC#N)C3)cc2)cc1)CO (racemic) [Compound 133, 2-((((rac-trans)-3-((4′-((S)-4-hydroxy-3-(2-((S)-1-hydroxyethyl)-1H-imidazol-1-yl)but-1-yn-1-yl)-[1,1′-biphenyl]-4-yl)oxy)cyclobutyl)methyl)amino) acetonitrile] | 8 µg/mL (≈ 17 µM) | 1 µg/mL (≈ 2.13 µM) | 4 µg/mL (≈ 8.5 µM) | 4 µg/mL (≈ 8.5 µM) |  |  |  | 
4 | C[C@H](O)c1nccn1[C@@H](C#Cc1ccc(-c2ccc(O[C@@H]3C[C@H]3NCC#N)cc2)cc1)CO (racemic) [Compound 141, 2-(((rac-trans)-2-((4′-((S)-4-hydroxy-3-(2-((S)-1-hydroxyethyl)-1H-imidazol-1-yl)but-1-yn-1-yl)-[1,1′-biphenyl]-4-yl)oxy)cyclopropyl)amino) acetonitrile] |  |  |  |  | 1 µg/mL (≈ 2.26 µM) | 1 µg/mL (≈ 2.26 µM) | 8 µg/mL (≈ 18.1 µM) | 2 µg/mL (≈ 4.52 µM)
5 | C[C@H](O)c1nccn1[C@@H](C#Cc1ccc(-c2ccc(O[C@H]3C[C@@H](CNCC#N)C3)cc2)cc1)CO (racemic) [Compound 142, 2-((((rac-cis)-3-((4′-((S)-4-hydroxy-3-(2-((S)-1-hydroxyethyl)-1H-imidazol-1-yl)but-1-yn-1-yl)-[1,1′-biphenyl]-4-yl)oxy)cyclobutyl)methyl)amino)acetonitrile] |  |  |  |  | 2 µg/mL (≈ 4.25 µM) | 1 µg/mL (≈ 2.13 µM) | 4 µg/mL (≈ 8.5 µM) | 2 µg/mL (≈ 4.25 µM)
6 | C[C@H](O)c1nccn1[C@@H](C#Cc1ccc(-c2ccc(O[C@@H]3COC[C@H]3O)cc2F)cc1)CO (single isomer, unassigned) [Compound 3] | 2 µg/mL (≈ 4.42 µM) | 1 µg/mL (≈ 2.21 µM) | 2 µg/mL (≈ 4.42 µM) | 2 µg/mL (≈ 4.42 µM) |  |  |  | 
7 | C[C@H](O)c1nccn1[C@@H](C#Cc1ccc(-c2ccc(OC3COC[C@@H]3O)c(F)c2)cc1)CO (single isomer, unassigned) [Compound 7] | 4 µg/mL (≈ 8.84 µM) | 1 µg/mL (≈ 2.21 µM) | 4 µg/mL (≈ 8.84 µM) | 2 µg/mL (≈ 4.42 µM) |  |  |  | 
8 | C[C@H](O)c1nccn1[C@@H](C#Cc1ccc(-c2ccc(OC3COC[C@H]3O)c(F)c2)cc1)CO (single isomer, unassigned) [Compound 8] | 4 µg/mL (≈ 8.84 µM) | 2 µg/mL (≈ 4.42 µM) | 4 µg/mL (≈ 8.84 µM) | 2 µg/mL (≈ 4.42 µM) |  |  |  | 

Continued by falling MIC (K. pneumoniae ATCC13883; [1]), values first:

Row | MIC (K. pneumoniae ATCC13883; [1]) | MIC (E. coli ATCC25922; [2]) | MIC (P. aeruginosa ATCC27853; [3]) | MIC (P. aeruginosa PAO1; [4]) | Compound | MIC (K. pneumoniae ATCC13883; [5]) | MIC (E. coli ATCC25922; [6]) | MIC (P. aeruginosa ATCC27853; [7]) | MIC (P. aeruginosa PAO1; [8])
9 | 2 µg/mL (≈ 4.38 µM) | 1 µg/mL (≈ 2.19 µM) | > 32 µg/mL | 2 µg/mL (≈ 4.38 µM) | C[C@H](O)c1nccn1[C@@H](C#Cc1ccc(-c2ccc(O[C@H]3C[C@@H](NCC#N)C3)cc2)cc1)CO (racemic) [Compound 131, 2-((rac-cis)-3-((4′-((S)-4-hydroxy-3-(2-((S)-1-hydroxyethyl)-1H-imidazol-1-yl)but-1-yn-1-yl)-[1,1′-biphenyl]-4-yl)oxy)cyclobutyl)amino) acetonitrile] |  |  |  | 
10 | 2 µg/mL (≈ 4.51 µM) | 0.5 µg/mL (≈ 1.13 µM) | 2 µg/mL (≈ 4.51 µM) | 2 µg/mL (≈ 4.51 µM) | CC(=O)N[C@H]1C[C@@H](c2ccc(-c3ccc(C#C[C@@H](CO)n4ccnc4[C@H](C)O)cc3)cc2)C1 (racemic) [Compound 135, N-((rac-cis)-3-(4′-((S)-4-hydroxy-3-(2-((S)-1-hydroxyethyl)-1H-imidazol-1-yl)but-1-yn-1-yl)-[1,1′-biphenyl]-4-yl)cyclobutyl)acetamide] |  |  |  | 
11 | 2 µg/mL (≈ 4.35 µM) | 0.5 µg/mL (≈ 1.09 µM) | 1 µg/mL (≈ 2.18 µM) | 0.5 µg/mL (≈ 1.09 µM) | CNC(=O)[C@H]1C[C@@H](Oc2ccc(-c3ccc(C#C[C@@H](CO)n4ccnc4[C@H](C)O)cc3)cc2)C1 (racemic) [Compound 137, (rac-cis)-3-((4′-((S)-4-hydroxy-3-(2-((S)-1-hydroxyethyl)-1H-imidazol-1-yl)but-1-yn-1-yl)-[1,1′-biphenyl]-4-yl)oxy)-N-methylcyclobutane-1-carboxamide] |  |  |  | 
12 | 2 µg/mL (≈ 4.42 µM) | 1 µg/mL (≈ 2.21 µM) | 4 µg/mL (≈ 8.84 µM) | 2 µg/mL (≈ 4.42 µM) | C[C@H](O)c1nccn1[C@@H](C#Cc1ccc(-c2ccc(O[C@H]3COC[C@@H]3O)cc2F)cc1)CO (single isomer, unassigned) [Compound 2] |  |  |  | 
13 | 1 µg/mL (≈ 2.19 µM) | 0.5 µg/mL (≈ 1.1 µM) | 4 µg/mL (≈ 8.76 µM) | 1 µg/mL (≈ 2.19 µM) | C[C@H](O)c1nccn1[C@@H](C#Cc1ccc(-c2ccc(O[C@H]3C[C@H](NCC#N)C3)cc2)cc1)CO (racemic) [Compound 121, 2-(((rac-trans)-3-((4′-((S)-4-hydroxy-3-(2-((S)-1-hydroxyethyl)-1H-imidazol-1-yl)but-1-yn-1-yl)-[1,1′-biphenyl]-4-yl)oxy)cyclobutyl)amino) acetonitrile] |  |  |  | 
14 | 1 µg/mL (≈ 2.18 µM) | 0.5 µg/mL (≈ 1.09 µM) | 2 µg/mL (≈ 4.35 µM) | 2 µg/mL (≈ 4.35 µM) | CNC(=O)[C@H]1C[C@H](Oc2ccc(-c3ccc(C#C[C@@H](CO)n4ccnc4[C@H](C)O)cc3)cc2)C1 (racemic) [Compound 122, (rac-trans)-3-((4′-((S)-4-hydroxy-3-(2-((S)-1-hydroxyethyl)-1H-imidazol-1-yl)but-1-yn-1-yl)-[1,1′-biphenyl]-4-yl)oxy)-N-methylcyclobutane-1-carboxamide] |  |  |  | 
15 | 1 µg/mL (≈ 2.25 µM) | 0.25 µg/mL (≈ 0.564 µM) | 1 µg/mL (≈ 2.25 µM) | 1 µg/mL (≈ 2.25 µM) | CC(=O)N[C@H]1C[C@H](c2ccc(-c3ccc(C#C[C@@H](CO)n4ccnc4[C@H](C)O)cc3)cc2)C1 (racemic) [Compound 127, N-((rac-trans)-3-(4′-((S)-4-hydroxy-3-(2-((S)-1-hydroxyethyl)-1H-imidazol-1-yl)but-1-yn-1-yl)-[1,1′-biphenyl]-4-yl)cyclobutyl)acetamide] |  |  |  | 
16 | 1 µg/mL (≈ 2.34 µM) | 0.5 µg/mL (≈ 1.17 µM) | 4 µg/mL (≈ 9.36 µM) | 2 µg/mL (≈ 4.68 µM) | C[C@H](O)c1nccn1[C@@H](C#Cc1ccc(-c2ccc(O[C@H]3C[C@@H](C#N)C3)cc2)cc1)CO (racemic) [Compound 129, (rac-cis)-3-((4′-((S)-4-hydroxy-3-(2-((S)-1-hydroxyethyl)-1H-imidazol-1-yl)but-1-yn-1-yl)-[1,1′-biphenyl]-4-yl)oxy)cyclobutane-1-carbonitrile] |  |  |  | 
17 | 1 µg/mL (≈ 2.34 µM) | 0.25 µg/mL (≈ 0.585 µM) | > 32 µg/mL | 2 µg/mL (≈ 4.68 µM) | C[C@H](O)c1nccn1[C@@H](C#Cc1ccc(-c2ccc(O[C@H]3C[C@H](C#N)C3)cc2)cc1)CO (racemic) [Compound 130, (rac-trans)-3-((4′-((S)-4-hydroxy-3-(2-((S)-1-hydroxyethyl)-1H-imidazol-1-yl)but-1-yn-1-yl)-[1,1′-biphenyl]-4-yl)oxy) cyclobutane-1-carbonitrile] |  |  |  | 
